Where “and” joins values, the source holds several entries; their conditions need not be identical. Identical values can stand only once.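 Each compound was tested at five concentrations against cells in 96-well plates for 48 hours. GI50 = concentration required for 50% inhibition of growth. At the TGI there is no net growth.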 Where only a bound is given, the exact number is not on record here.

Our source for the TGI and GI50 values is PubChem BioAssay (NCI).

Experiment in all cases: growth of human tumour cells (NCI), 48 h
For experiment [1], the system named is HCC-2998 colon.
Experiment [2] relates to K-562 leukemia.
In experiment [3] the test system is KM12 colon.
For experiment [4], the system named is MDA-N.
Experiment [5] deals with SK-MEL-2 melanoma.
Experiment [6] concerns SK-MEL-5 melanoma.
For experiment [7], the system named is SW-620 colon.
In experiment [8] the test system is U251 CNS.
The subject of experiment [9] is SF-539 CNS.
In experiment [10] the test system is SR leukemia.

On to `COc1ccc(-c2c(/C=N/OCC(=O)O)c3sc4ccccc4n3c2/C=N/OCC(=O)O)cc1`, for which the TGI in [1], in experiment [2], in experiment [3], in experiment [4], in experiment [5] and in experiment [6] was more than 50 µM in each case. In addition, the TGI in [7] and in experiment [8] was more than 50 µM each time.
`CCOC(=O)c1cnc2n(c1=O)[C@H]1CCCC[C@@H]1N2`: the TGI in [1], in [2], in [3], in experiment [4], in [9] and in experiment [5] was more than 100 µM each time. Further, the TGI in experiment [6], in [7] and in [8] was more than 100 µM each time.
As to `Cc1c2cc[n+](C)cc2c(C)c2c1[nH]c1ccc(OCC(F)(F)F)cc12`, the TGI in experiment [1] is 34.5 µM and > 100 µM; in [2], more than 56.6 µM; in experiment [3] it was more than 44.8 µM; in experiment [5], more than 100 µM; in [6], 11.2 µM and 7.07 µM; in experiment [10], 23 µM and > 52.1 µM. Moreover, the TGI in [7] is more than 100 µM; in experiment [8] it was 1.49 µM. Besides, the GI50 in [9] was 1.73 µM; in experiment [5], 5.9 µM.
Regarding `CCCCn1c(-c2ccccc2)cs/c1=N\NC(=O)Cn1c(C)nc2ccccc21`, the TGI in experiment [1], in [2], in experiment [3], in experiment [9], in experiment [5] and in experiment [6] was more than 100 µM in each case. Moreover, the figures for the TGI in [10], in experiment [7] and in experiment [8] were 50.9 µM, more than 100 µM and more than 100 µM, respectively.
On to `C=C1C(=O)OC2C[C@@]3(C)CCCC(=C)C3CC12` (some centres undefined), for which the TGI was 26.7 µM in experiment [1]; 5.94 µM in experiment [3]; 3.7 µM in experiment [9]; 12.7 µM in experiment [5]; 20.4 µM in [6]; more than 100 µM in experiment [10]. Also, the TGI in [7] turned out to be 14.4 µM; in experiment [8], 21.7 µM.
For `CC12CC(c3ccccc3O1)C(C(=O)Nc1nccs1)C(=O)N2` (centres undefined), the TGI in [1], in experiment [2], in experiment [3], in experiment [4], in experiment [5] and in [6] was more than 100 µM throughout. Besides, the TGI in experiment [7] and in experiment [8] was more than 100 µM throughout.
`Cc1noc(-c2ccc(C(=O)O)[nH]2)c1Br`: the TGI in [1], in experiment [2], in [3], in experiment [4], in [5] and in experiment [6] was more than 100 µM in each case. The TGI in [7] and in experiment [8] was more than 100 µM in each case.
For the compound `CN(C)Cc1cc(/C=C/C(=O)c2ccc(Br)cc2)cc(CN(C)C)c1O`, the TGI in experiment [1] was 27.8 µM; in experiment [2] it was more than 100 µM; in [3], 29.6 µM; in [4], 32.6 µM; in experiment [9], 29.1 µM; in [5] it was 90.5 µM. For the same compound, the TGI is 40 µM in experiment [6] and 52 µM in experiment [7].
`COc1ccc(N=C(C)C(C)=Nc2ccc(OC)cc2)cc1`: the TGI is 82.6 µM in experiment [1]; more than 100 µM in experiment [2]; more than 100 µM in experiment [3]; more than 100 µM in experiment [9]; more than 100 µM in [5]; more than 100 µM in experiment [6]. Also, the TGI in experiment [10], in experiment [7] and in experiment [8] was more than 100 µM in each case.
Consider `COc1ccc(NCn2nc(CCCCCCCCc3nn(CNc4ccc(OC)cc4)c(=S)o3)oc2=S)cc1`, for which the TGI in experiment [1], in experiment [2], in experiment [3], in [4], in experiment [5] and in experiment [6] was more than 100 µM throughout. Further, the TGI in experiment [7] and in [8] was more than 100 µM each time.
For `O=c1[nH]c(=S)[nH]c2c1CCCN2`, the TGI in experiment [3], in experiment [5], in experiment [6], in experiment [10], in experiment [7] and in [8] was more than 100 µM throughout.
`COc1cc(/C=C2\N=C(c3ccccc3)N(c3cc4cc(Sc5ccccc5)ccc4[nH]3)C2=O)ccc1O`: the TGI in experiment [1] was more than 50 µM; in experiment [2], more than 50 µM; in experiment [3] it was more than 50 µM; in experiment [9] it was more than 50 µM; in [6], more than 50 µM; in experiment [10] it was 20.4 µM. In [7], this compound yielded a TGI of more than 50 µM.
With `C/C(=N/NC(N)=S)C(CN1CCOCC1)C(C1=C(O)c2ccccc2OC1)c1ccccc1` (centres undefined), the TGI in [1], in experiment [2], in experiment [3], in experiment [9], in experiment [5] and in experiment [6] was more than 100 µM in each case. Further, the TGI in experiment [10], in experiment [7] and in experiment [8] was more than 100 µM in each case.
In the case of `COc1ccc(C2C3=C(COC3=O)Oc3cc4c(cc32)OCO4)cc1OC` (centres undefined), the TGI in [1] is 4.85 µM; in experiment [2], more than 26.8 µM; in experiment [3] it was more than 71.7 µM; in experiment [4], 0.639 µM; in experiment [9], 2.31 µM; in experiment [5], more than 100 µM. Also, the TGI in experiment [6], in [7] and in experiment [8] was more than 100 µM each time.
Turning to `COc1cccc(C2C(C#N)=C(N)Oc3cc(OCCCCCC[P+](c4ccccc4)(c4ccccc4)c4ccccc4)ccc32)c1` (centres undefined), the GI50 was 0.493 µM in experiment [1]; 0.334 µM in experiment [2]; 0.433 µM in experiment [3]; 0.745 µM in experiment [9]; 0.36 µM in experiment [10]. Moreover, the TGI is 1.68 µM in experiment [1]; more than 23.7 µM in experiment [2]; 1.58 µM in experiment [3]; 2.12 µM in [9]; 1.92 µM in experiment [10].
Turning to `C/C(N=NS(=O)(=O)c1c(C)cc(C)cc1C)=C1\C=CC=CN1O`, the TGI in [1], in experiment [2], in experiment [3], in [9], in [6] and in [10] was more than 100 µM in each case. Moreover, the TGI in experiment [7] and in experiment [8] was more than 100 µM in each case.
